Several values for one entry are separate records, joined by “and”; a condition that tells them apart may be missing. Identical values can stand only once.
Tests used:
[1] = Encapsulated drug concentration and encapsulation efficiency (EE) in Cit-X-CPSNPs by LC-MS/MS; format: physicochemical; details: for Drug concentration (M) / EE (mol %): citrate-functionalized CPSNPs, weighted mean ± 95% confidence interval, n = 4-6 replicates
Method: The encapsulation efficiencies (EE) in Table 1 was experimentally determined by LC-MS/MS for 5FU, 5FU:ATP, FUdR, FdUMP, Gem, and GemMP, as drawn in FIG. 2 1. The EE is defined by the following equation,
(§1) where mi was the total drug content in moles and mf was the moles encapsulated as assessed by LC-MS/MS. Particles were diluted in 10% methanol with 0.1% formic acid and 5-CU was spiked in as an internal standard. Chromatography was done on a 2.1 mm×10 cm HSS T3 or C18 CSH column (Waters) on a Waters I-class FTN chromatography system with the column temperature at 40° C. Mobile phase A was water with 5 mM ammonium acetate and B was methanol. The flow rate was 0.5 mL/min and the chromatography consisted of holding at 7.5% B for 1 min, increasing to 95% B over 0.5 min, holding at 95% B for 0.5 min before equilibration to starting conditions. Eluate was analyzed by an inline Waters TQ-S mass spectrometer. The capillary was set at 1.0 kV, source temperature at 150° C., desolvation temperature at 600° C., cone gas at 150 L/hr, and desolvation gas flow at 1200 L/hr. Multiple reaction monitoring (MRM) was used to detect 5-CU, FdUMP, Gem, and GemMP. The MRM transition used for 5-CU was 145 >42 with the collision energy set at 12. The MRM transition used for drug agents was 325 >195 with the collision energy set at 12. Drug concentrations were determined using TargetLynx version 4.1 (Waters) using an external calibration curve with 1/x weighting.
as §1, with “Particles” for “where mi was the total drug content in moles and mf was the moles encapsulated as assessed by LC-MS/MS. Particles”, “5-CU” for “5-CU, FdUMP, Gem,”, “FdUMP.” for “GemMP.”, “FdUMP” for “drug agents”, “FdUMP” for “Drug”

PANC-1 [2] = test: Cell proliferation assay (alamarBlue); format: cell-based, human; details: for EC50 of free drug, PANC-1: in words
Text: (§2) CPSNPs in 70/30 ethanol/water suspensions were completely dried under pre-purified argon and reconstituted in sterile 1×PBS without calcium or magnesium.
(§3) BxPC-3 and Panc-1 were obtained from ATCC. RLT-PSC pancreatic stellate cells were a gift from Professor Ralf Jesenofsky, University of Heidelberg, and H6c7, immortalized human pancreatic ductal epithelial cells, were a gift of Dr. Ming-Sound Tsao, University of Toronto. H6c7 cells have a near normal genotype with wild type p53 and KRAS genes. Cells were cultured in the appropriate media as follows: Dulbecco's modified Eagle medium with 10% FBS for PANC-1 and RLT-PSC, RPMI 1640 with 10% FBS for BxPC-3, and complete keratinocyte basal medium (KBM), containing growth factors, hormones and bovine pituitary extract for H6c7 cells (Invitrogen).
(§4) PANC-1, BxPC-3, RLT-PSC and H6c7 cells were seeded into 96 well plates at 5,000 cells per well. At 24 hours post seeding, media only/no treatment (NT), vehicle (lx sterile PBS without calcium and magnesium), 5FU and FdUMP treatments were initiated and viable cells determinations were made at 24, 48 or 72 hr post-treatment using an alamarBlue® assay (Life Technologies). Data were normalized to vehicle treatments for all time points.
(§5) CPSNPs in 70/30 ethanol/water suspensions were completely dried under pre-purified argon and reconstituted in sterile 1×PBS without calcium or magnesium. PANC-1, BxPC-3, RLT-PSC and H6c7 cells were seeded into 96 well plates at 5,000 cells per well. At 24 hours post seeding, media only/no treatment (NT), vehicle (1× sterile PBS without calcium and magnesium), 5FU and FdUMP treatments were initiated and viable cells determinations were made at 24, 48 or 72 hr post-treatment using an alamarBlue® assay (Life Technologies). Data were normalized to vehicle treatments for all time points.
(§6) Results were expressed as means±standard error. Student t-tests were used to evaluate statistical significance with a p<0.05 considered to be significant. To calculate EC50±95% CI, nonlinear regression analysis was performed to generate the curve of best fit for the data according to a Sigmoidal regression using a 4-parameter logistic curve calibration [Y=Yo+(a/(1+((X/Xo)^b))] in SigmaPlot 12 (Systat, Inc.).

BxPC-3 = test: Cell proliferation assay (alamarBlue); format: cell-based, human; details: for Decrease of BxPC-3 proliferation: 200 μM free drug; for EC50 of free drug, BxPC-3: in words
Text: as §2, §3, §4, §5, §6

[3] = in vivo; cited from earlier work
[4] = target: T1, thymidylate synthase (TS) (Homo sapiens, UniProt P04818); test: Thymidylate synthase immunoblotting, PANC-1 cells; format: cell-based; set-up: endogenous in cells; host or cells: PANC-1 (ATCC); details: 250 μM free FdUMP
T1 sequence (P04818 2-313 limits assumed): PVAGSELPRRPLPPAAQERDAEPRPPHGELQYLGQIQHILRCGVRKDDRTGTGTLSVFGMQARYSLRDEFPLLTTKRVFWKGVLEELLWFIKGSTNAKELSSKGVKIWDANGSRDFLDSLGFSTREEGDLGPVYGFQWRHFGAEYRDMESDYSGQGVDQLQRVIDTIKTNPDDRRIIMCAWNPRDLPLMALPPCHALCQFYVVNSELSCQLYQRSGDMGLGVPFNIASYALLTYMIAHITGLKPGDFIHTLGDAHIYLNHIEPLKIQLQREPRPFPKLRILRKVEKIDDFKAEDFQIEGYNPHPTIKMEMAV
Method: Thus in the presence of folate, TS dimers and FdUMP create an irreversibly inactivated enzyme:drug complex.^59 Experimentally, the inhibition of TS activity by FdUMP can be detected by the presence of this stable ternary complex.
PANC-1 cells were incubated for 24 hours in the following treatment groups: NT, vehicle, 250 μM free FdUMP, 200 nM FdUMP-CPSNPs, and Ghost-CPSNPs in PBS. Lysates were collected by aspirating the media, washing with 1×PBS, and adding RIPA buffer containing Complete Mini protease cocktail (Roche). Lysates were spun to remove debris and the supernatants frozen at −80° C. Protein concentration was determined by micro BCA protein assay (Thermo Scientific) and 20 μg of protein separated by gel electrophoresis. After transfer to HyBond ECL and blocking for 1 hr in 5% BSA, blots were probed overnight with anti-TS antibody (1:1000, D5B3, #9045 Cell Signaling). Blots were washed, probed with anti-rabbit-HRP secondary antibody for 1 hour and developed with Pierce Pico (Thermo Scientific). Quantitation of scanned blots was done using Image J software.
PANC-1 cells were incubated for 24 hours in the following treatment groups: NT, vehicle, 250 μM free FdUMP, 200 nM FdUMP-CPSNPs, and ghost-CPSNPs in PBS. […] Lysates were spun to remove debris and the supernatants frozen at −80° C. […] Quantitation of scanned blots was done using Image J software.

[5] = target: T1, thymidylate synthase (TS); test: Thymidylate synthase immunoblotting, BxPC-3 cells; format: cell-based; set-up: PANC-1 cells were incubated for 24 hours in the following treatment groups; endogenous in cells; details: 250 μM free FdUMP
PANC-1 [6] = test: Cell cycle analysis by propidium iodide flow cytometry; format: cell-based, human; details: PANC-1, 72 hr, 250 μM
Method: For determination of nuclear DNA content, PANC-1 treatments included NT, vehicle (1× sterile calcium- and magnesium-free PBS), 250 μM free FdUMP, Ghost-CPSNPs, or 200 nM FdUMP-CPSNPs. After 72 hours of treatment, cells were fixed in 75% ethanol overnight. Immediately prior to analysis, cells were treated with 1 μg/mL of RNase A and stained with 50 μg/mL of propidium iodide, which is taken up by double-stranded DNA. DNA content was determined using a FACSCalibur flow cytometer (BD Biosciences), and data were analyzed with Cellquest (Verity Software).
For determination of nuclear DNA content, PANC-1 treatments included NT, vehicle (1× sterile calcium- and magnesium-free PBS), 250 μM free FdUMP, ghost-CPSNPs, or 200 nM FdUMP-CPSNPs. After 72 hours of treatment, cells were fixed in 75% ethanol overnight. Immediately prior to analysis, cells were treated with 1 μg/mL of RNase A and stained with 50 µg/mL of propidium iodide, which is taken up by double-stranded DNA. DNA content was determined using a FACSCalibur flow cytometer (BD Biosciences), and data were analyzed with Cellquest (Verity Software).

O=c1[nH]cc(F)c(=O)[nH]1 [Formulation 5FU, 5-fluorouracil]
Drug concentration (M) [1]: 4.1 (±1.8)×10^−7 M
EE (mol %) [1]: 0.11 (±0.04) mol %
EC50 of free drug, PANC-1 (PANC-1 [2]): low uM
Decrease of BxPC-3 proliferation (BxPC-3): equally effective
EC50 of free drug, BxPC-3 (BxPC-3): low uM
Fraction of 5FU catabolized to 5-fluorodihydrouracil by DPD [3]: more than 80%
Fraction of 5FU pro-drug activated to FdUMP [3]: less than 20%

Nc1ccn([C@@H]2O[C@H](CO)[C@@H](O)C2(F)F)c(=O)n1 [Gem, 2′,2′-difluorodeoxycytidine]
Drug concentration (M) [1]: 1.9 (±0.6)×10^−9 M
EE (mol %) [1]: < 0.01 mol %

O=c1[nH]c(=O)n([C@H]2C[C@H](O)[C@@H](COP(=O)(O)O)O2)cc1F [FdUMP, 5-fluoro-2′-deoxyuridine 5′-monophosphate]
EE, range over replicated formulations ([1]; Cit-X-CPSNPs): 7-97 mol %
Encapsulated drug concentration, range over replicated formulations ([1]; Cit-X-CPSNPs): 60 to 830 µM
Drug concentration (M) [1]: 3.0 (±1.4)×10^−4 M
EE (mol %) [1]: 41 (±16) mol %
TS in inactive ternary complex (inhibition), PANC-1 [4]: 80%
Reduction of PANC-1 proliferation (PANC-1 [2]; 200 μM free drug): twice as effective as free 5FU
EC50 of free drug, PANC-1 (PANC-1 [2]): low uM
Decrease of BxPC-3 proliferation (BxPC-3): equally effective
EC50 of free drug, BxPC-3 (BxPC-3): low uM
TS in inactive ternary complex (inhibition), BxPC-3 [5]: 90%
% Cells in G2/M (PANC-1 [6]): 23.5 ± 6.3%
% Cells in G1/G0 (PANC-1 [6]; listed as free FdUMP): 20% and 20.3 ± 3.0%
% Cells in S (PANC-1 [6]; listed as free FdUMP): 56% and 56.3 ± 10.3%

gemcitabine monophosphate [GemMP]
EE, range over replicated formulations ([1]; Cit-X-CPSNPs): 15-30 mol %
Drug concentration (M) [1]: 2.3 (±0.4)×10^−5 M
EE (mol %) [1]: 22 (±6) mol %
EC50 of free drug, PANC-1 (PANC-1 [2]): nM range
EC50 of free drug, BxPC-3 (BxPC-3): nM range

O=c1[nH]c(=O)n([C@H]2C[C@H](O)[C@@H](CO)O2)cc1F [FUdR, 5-fluoro-2′-deoxyuridine]
EE, range over replicated formulations ([1]; Cit-X-CPSNPs): < 0.01 mol %
Drug concentration (M) [1]: 2.8 (±1.2)×10^−8 M
EE (mol %) [1]: < 0.01 mol %
